Consider 18 compounds from US20250059183A1, “PYRIDINE[4,3-D]PYRIMIDINE COMPOUND AS TLR7/8 AGONIST” (SHANGHAI VISONPHARMA CO., LTD., priority 2021, published 2025).

The target of one test is T1, human TLR8 (Homo sapiens, UniProt Q9NR97).
T1 construct: host or cells: HEK-Blue hTLR8 (HEK293-derived reporter cells)
T1 sequence (Q9NR97 27-1041): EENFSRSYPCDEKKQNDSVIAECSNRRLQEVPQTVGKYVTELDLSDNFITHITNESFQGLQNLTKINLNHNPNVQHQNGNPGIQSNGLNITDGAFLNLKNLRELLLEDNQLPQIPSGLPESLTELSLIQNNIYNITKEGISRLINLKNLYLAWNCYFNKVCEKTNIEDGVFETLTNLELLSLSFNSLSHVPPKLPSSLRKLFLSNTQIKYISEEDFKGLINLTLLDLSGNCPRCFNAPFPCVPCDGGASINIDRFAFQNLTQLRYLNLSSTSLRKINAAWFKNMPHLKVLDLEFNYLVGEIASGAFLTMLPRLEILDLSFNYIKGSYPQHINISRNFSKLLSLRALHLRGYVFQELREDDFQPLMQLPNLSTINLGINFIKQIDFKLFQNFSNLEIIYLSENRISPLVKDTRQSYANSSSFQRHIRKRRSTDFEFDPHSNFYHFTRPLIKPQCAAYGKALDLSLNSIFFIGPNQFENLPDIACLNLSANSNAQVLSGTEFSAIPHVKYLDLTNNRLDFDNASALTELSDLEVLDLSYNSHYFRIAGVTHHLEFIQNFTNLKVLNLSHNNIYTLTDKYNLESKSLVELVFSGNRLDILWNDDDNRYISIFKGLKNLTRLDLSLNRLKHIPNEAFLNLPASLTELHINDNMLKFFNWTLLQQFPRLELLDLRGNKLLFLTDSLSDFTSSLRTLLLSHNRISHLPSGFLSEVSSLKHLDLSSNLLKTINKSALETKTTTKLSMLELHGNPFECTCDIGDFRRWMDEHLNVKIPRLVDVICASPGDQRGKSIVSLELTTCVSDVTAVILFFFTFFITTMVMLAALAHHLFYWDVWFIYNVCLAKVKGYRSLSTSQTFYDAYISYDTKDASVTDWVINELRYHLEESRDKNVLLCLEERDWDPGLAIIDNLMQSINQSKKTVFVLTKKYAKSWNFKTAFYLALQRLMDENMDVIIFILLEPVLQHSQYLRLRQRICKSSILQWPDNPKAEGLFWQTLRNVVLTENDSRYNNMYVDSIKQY
As to the kind of experiment: HEK-Blue hTLR8 SEAP reporter gene agonist assay. It is filed as cell-based. As to conditions: HEK-Blue hTLR8 cells, 16 to 22 hours incubation. The procedure, abridged:
(§1)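 HEK-Blue cells stably expressing human TLR7 or TLR8 carry a SEAP reporter driven by a minimal IFN-β promoter fused to 5×NF-κB and AP-1 sites. Compounds at […] final, 16 to 22 h. SEAP in the medium measured with Quanti-blue at OD650, and EC50 derived.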
In general terms: Reporter assays use an easily measured gene product as a stand-in for the process of interest.

The target of a further test is T2, human TLR7 (Homo sapiens, UniProt Q9NYK1).
T2 construct: host or cells: HEK-Blue hTLR7 (HEK293-derived reporter cells)
T2 sequence (Q9NYK1 27-1049): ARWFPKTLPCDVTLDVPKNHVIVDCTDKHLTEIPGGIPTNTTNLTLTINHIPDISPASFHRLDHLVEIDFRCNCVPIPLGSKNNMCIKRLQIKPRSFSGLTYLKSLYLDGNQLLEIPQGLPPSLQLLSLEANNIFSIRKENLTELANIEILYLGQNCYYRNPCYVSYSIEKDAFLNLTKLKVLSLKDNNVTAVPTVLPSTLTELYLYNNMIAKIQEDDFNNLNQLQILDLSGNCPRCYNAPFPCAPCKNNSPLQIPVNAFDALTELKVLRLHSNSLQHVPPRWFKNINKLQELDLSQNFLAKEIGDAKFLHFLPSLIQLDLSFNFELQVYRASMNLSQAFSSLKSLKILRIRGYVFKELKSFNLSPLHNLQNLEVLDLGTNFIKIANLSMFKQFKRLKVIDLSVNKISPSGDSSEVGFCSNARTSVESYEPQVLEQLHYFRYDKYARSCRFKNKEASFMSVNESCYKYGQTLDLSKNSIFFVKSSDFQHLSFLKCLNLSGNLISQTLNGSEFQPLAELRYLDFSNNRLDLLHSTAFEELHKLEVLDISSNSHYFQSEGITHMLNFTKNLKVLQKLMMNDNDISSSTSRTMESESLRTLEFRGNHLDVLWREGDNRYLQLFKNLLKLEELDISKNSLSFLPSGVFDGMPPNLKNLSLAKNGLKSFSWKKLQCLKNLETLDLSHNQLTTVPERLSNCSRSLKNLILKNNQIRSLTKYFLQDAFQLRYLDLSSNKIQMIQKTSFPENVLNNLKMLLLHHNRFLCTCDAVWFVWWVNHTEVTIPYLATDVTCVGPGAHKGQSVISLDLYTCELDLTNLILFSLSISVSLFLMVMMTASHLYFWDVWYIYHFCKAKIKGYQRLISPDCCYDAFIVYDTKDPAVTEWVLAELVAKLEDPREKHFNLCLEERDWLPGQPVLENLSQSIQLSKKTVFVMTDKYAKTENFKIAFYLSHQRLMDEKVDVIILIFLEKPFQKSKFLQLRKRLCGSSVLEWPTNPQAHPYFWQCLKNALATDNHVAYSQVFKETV
Nature of the test: HEK-Blue hTLR7 SEAP reporter gene agonist assay. The note with it: HEK-Blue hTLR7 cells, 16 to 22 hours incubation. The class given is cell-based. The gist of the method:
as §1

As a reminder, the EC50 is the midpoint of the concentration-response curve. Higher therefore signals a need for much substance.

For the compound `CCC[C@@H](C)Nc1nc(N)nc2ccn(Cc3ccc(CN(CCO)CCO)cc3)c(=O)c12` [Compound I-141, (R)-2-amino-6-(4-((bis(2-hydroxyethyl)amino)methyl)benzyl)-4-(pentan-2-ylamino)pyrido[4,3-d]pyrimidin-5(6H)-one], the EC50 stood at 20 nM on human TLR8 and 50 nM at human TLR7.
`CCC[C@@H](C)Nc1nc(N)nc2ccn(Cc3ccc(C(=O)N4CCN(C)CC4)cc3OC)c(=O)c12` [Compound I-182, (R)-2-amino-6-(2-methoxy-4-(4-methylpiperazine-1-carbonyl)benzyl)-4-(pentan-2-ylamino)pyrido[4,3-d]pyrimidin-5(6H)-one]: the EC50 on human TLR8 amounted to 58 nM; at human TLR7, 54 nM.
The like results for `CCC[C@@H](CO)Nc1nc(N)nc2ccn(Cc3ccc(CN4CCN(CCCCCCN)CC4)cc3OC)c(=O)c12` [Compound I-217, (S)-2-amino-6-(4-((4-(6-aminohexyl)piperazin-1-yl)methyl)-2-methoxybenzyl)-4-((1-h hydroxypentan-2-yl)amino)pyrido[4,3-d]pyrimidin-5(6H)-one] were, in that order, 35 nM and 100 nM.
The like results for `CCC[C@@H](C)Nc1nc(N)nc2ccn(Cc3ccc(CN(CCC)CCO)cc3OC)c(=O)c12` [Compound I-165, (R)-2-amino-6-(4-(((2-hydroxyethyl)(propyl)amino)methyl)-2-methoxybenzyl)-4-(pentan-2-ylamino)pyrido[4,3-d]pyrimidin-5(6H)-one] were, in that order, 60 nM and 40 nM.
`CCC[C@@H](C)Nc1nc(N)nc2ccn(Cc3ccc(C(=O)N4C5CNCC4C5)cc3)c(=O)c12` [Compound I-161, 6-(4-(3,6-diazabicyclo[3.1.1]heptane-6-carbonyl)benzyl)-2-amino-4-(((R)-pentan-2-yl)amino)pyrido[4,3-d]pyrimidin-5(6H)-one]: the EC50 at human TLR8 stood at 40 nM; on human TLR7 it was 110 nM.
For `CCC[C@@H](CO)Nc1nc(N)nc2ccn(Cc3ccc(CN4CCCC4)cc3C)c(=O)c12` [Compound I-169, (S)-2-amino-4-((1-hydroxypentan-2-yl)amino)-6-(2-methyl-4-(pyrrolidin-1-ylmethyl)benzyl)pyrido[4,3-d]pyrimidin-5(6H)-one], the EC50 came out at 20 nM on human TLR8 and 70 nM on human TLR7.
The like results for `CCC[C@@H](C)Nc1nc(N)nc2ccn(Cc3ccc(CN4CCCC4)cc3OC)c(=O)c12` [Compound I-154, (R)-2-amino-6-(2-methoxy-4-(pyrrolidin-1-ylmethyl)benzyl)-4-(pentan-2-ylamino)pyrido[4,3-d]pyrimidin-5(6H)-one] were, in that order, 40 nM and 30 nM.
The like results for `CCC[C@@H](C)Nc1nc(N)nc2ccn(Cc3ccc(CN4CCN(C)CC4)cc3OC)c(=O)c12` [Compound I-179, (R)-2-amino-6-(2-methoxy-4-((4-methylpiperazin-1-yl)methyl)benzyl)-4-(pentan-2-ylamino)pyrido[4,3-d]pyrimidin-5(6H)-one] were, in that order, 58 nM and 91 nM.
Consider `CCCCNc1nc(N)nc2ccn(Cc3ccc(CN4CCCC4)cc3OC)c(=O)c12` [Compound I-2, 2-amino-4-(butylamino)-6-(2-methoxy-4-(pyrrolidin-1-ylmethyl)benzyl)pyrido[4,3-d]pyrimidin-5(6H)-one], for which the concentration for a half-maximal effect (EC50) at human TLR8 turned out to be 107 nM; at human TLR7, 64 nM.
`CCC[C@@H](COC)Nc1nc(N)nc2ccn(Cc3ccc(CN4CCCC4)cc3OC)c(=O)c12` [Compound I-163, (S)-2-amino-6-(2-methoxy-4-(pyrrolidin-1-ylmethyl)benzyl)-4-((1-methoxypentan-2-yl)amino)pyrido[4,3-d]pyrimidin-5(6H)-one]: the figures for the EC50 at human TLR8 and on human TLR7 were 70 nM and 30 nM, respectively.
As to `CCC[C@@H](C)Nc1nc(N)nc2ccn(Cc3ccc(CN4CCCC4)cc3)c(=O)c12` [Compound I-103, (R)-2-amino-4-(pentan-2-ylamino)-6-(4-(pyrrolidin-1-ylmethyl)benzyl)pyrido[4,3-d]pyrimidin-5(6H)-one], the concentration for a half-maximal effect (EC50) at human TLR8 turned out to be 47 nM; on human TLR7, 64 nM.
The matching figures for `CCC[C@@H](CC)Nc1nc(N)nc2ccn(Cc3ccc(CN4CCCC4)cc3)c(=O)c12` [Compound I-138, (R)-2-amino-4-(hexan-3-ylamino)-6-(4-(pyrrolidin-1-ylmethyl)benzyl)pyrido[4,3-d]pyrimidin-5(6H)-one]: 97 nM and 58 nM.
In the case of `CCCCNc1nc(N)nc2ccn(Cc3ccc(C(=O)N4CCNCC4)cc3OC)c(=O)c12` [Compound I-72, 2-amino-4-(butylamino)-6-(2-methoxy-4-(piperazine-1-carbonyl)benzyl)pyrido[4,3-d]pyrimidin-5(6H1)-one], the EC50 on human TLR8 stood at 81 nM; on human TLR7, 64 nM.
Consider `CCC[C@@H](CO)Nc1nc(N)nc2ccn(Cc3ccc(CNC)cc3OC)c(=O)c12` [Compound I-214, (S)-2-amino-4-((1-hydroxypentan-2-yl)amino)-6-(2-methoxy-4-((methylamino)methyl)benzyl)pyrido[4,3-d]pyrimidin-5(6H)-one], for which the values for the concentration for a half-maximal effect (EC50) on human TLR8 and on human TLR7 were 3 nM and 86 nM, respectively.
The matching figures for `CCC[C@@H](C)Nc1nc(N)nc2ccn(Cc3ccc(CN4CCN(CCN)CC4)cc3OC)c(=O)c12` [Compound I-213, (R)-2-amino-6-(4-((4-(2-aminoethyl)piperazin-1-yl)methyl)-2-methoxybenzyl)-4-(pentan-2-ylamino)pyrido[4,3-d]pyrimidin-5(6H)-one]: 9 nM and 100 nM.
The matching figures for `CCC[C@@H](C)Nc1nc(N)nc2ccn(Cc3ccc(CN(CCO)CCO)cc3OC)c(=O)c12` [Compound I-166, (R)-2-amino-6-(4-((bis(2-hydroxyethyl)amino)methyl)-2-methoxybenzyl)-4-(pentan-2-ylamino)pyrido[4,3-d]pyrimidin-5(6H)-one]: 30 nM and 30 nM.
The like results for `CCC[C@@H](C)Nc1nc(N)nc2ccn(Cc3ccc(C(=O)N4CC5CC(C4)N5)cc3OC)c(=O)c12` [Compound I-181, 6-(4-(3,6-diazabicyclo[3.1.1]heptane-3-carbonyl)-2-methoxybenzyl)-2-amino-4-(((R)-pentan-2-yl)amino)pyrido[4,3-d]pyrimidin-5(6H)-one] were, in that order, 7 nM and 30 nM.
As for `CCC[C@@H](C)Nc1nc(N)nc2ccn(Cc3ccc(C(=O)N4CCNCC4)cc3OC)c(=O)c12` [Compound I-180, (R)-2-amino-6-(2-methoxy-4-(piperazine-1-carbonyl)benzyl)-4-(pentan-2-ylamino)pyrido[4,3-d]pyrimidin-5(6H)-one], the values for the EC50 on human TLR8 and at human TLR7 were 12 nM and 38 nM, respectively.
